Assay results as given in the supplement of paper PMC10307832.

What was measured:
Assay in all cases: relative viability (nuclei count vs DMSO), 5 days (fraction); higher = more cells survive
[1] = tested on: 201T
Summary of the method: (§1)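 Values are medians from duplicate plates. Each reflects relative viability, defined as the nuclei count of treated wells over that of vehicle wells. Lung cancer cell lines in 1536-well plates were pin-tool dosed one day after seeding with one drug alone or with a fixed anchor-drug dose plus five library-drug doses (not always all listed) in √10 steps, then fixed, stained and imaged at 4× after 5 days.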

[2] = tested on: BEN
Summary of the method: as §1

[3] = tested on: EPLC-272H
Summary of the method: as §1

[4] = tested on: HCC-15
Summary of the method: as §1

[5] = tested on: HCC-78
Summary of the method: as §1

[6] = tested on: LCLC-97TM1
Summary of the method: as §1

[7] = tested on: LU99A
Summary of the method: as §1

[8] = tested on: NCI-H1355
Summary of the method: as §1

[9] = tested on: NCI-H1395
Summary of the method: as §1

[10] = tested on: NCI-H2009
Summary of the method: as §1

[11] = tested on: NCI-H2085
Summary of the method: as §1

[12] = tested on: NCI-H2126
Summary of the method: as §1

[13] = tested on: NCI-H2228
Summary of the method: as §1

[14] = tested on: NCI-H23
Summary of the method: as §1

[15] = tested on: NCI-H2405
Summary of the method: as §1

[16] = tested on: NCI-H322M
Summary of the method: as §1

[17] = tested on: NCI-H460
Summary of the method: as §1

[18] = tested on: NCI-H647
Summary of the method: as §1

[19] = tested on: NCI-H650
Summary of the method: as §1

[20] = tested on: NCI-H661
Summary of the method: as §1

[21] = tested on: NCI-H838
Summary of the method: as §1

[22] = tested on: PC-14
Summary of the method: as §1

CN1CCN(CCOc2cc(OC3CCOCC3)c3c(Nc4c(Cl)ccc5c4OCO5)ncnc3c2)CC1 [Saracatinib] + CS(=O)(=O)CCNCc1ccc(-c2ccc3ncnc(Nc4ccc(OCc5cccc(F)c5)c(Cl)c4)c3c2)o1 [Lapatinib] (partner 2 µM)
relative viability ([1]; first compound 0.02 µM): 1
relative viability ([1]; first compound 0.2 µM): 0.856
relative viability ([1]; first compound 0.6325 µM): 0.998
relative viability ([1]; first compound 2 µM): 0.859
relative viability ([2]; first compound 0.02 µM): 0.745
relative viability ([2]; first compound 0.2 µM): 0.541
relative viability ([2]; first compound 0.6325 µM): 0.911
relative viability ([2]; first compound 2 µM): 0.489
relative viability ([3]; first compound 0.02 µM): 1.01
relative viability ([3]; first compound 0.2 µM): 0.806
relative viability ([3]; first compound 0.6325 µM): 1.05
relative viability ([3]; first compound 2 µM): 0.893
relative viability ([4]; first compound 0.02 µM): 0.859
relative viability ([4]; first compound 0.2 µM): 0.828
relative viability ([4]; first compound 0.6325 µM): 0.961
relative viability ([4]; first compound 2 µM): 0.854
relative viability ([5]; first compound 0.02 µM): 0.822
relative viability ([5]; first compound 0.2 µM): 0.481
relative viability ([5]; first compound 0.6325 µM): 0.686
relative viability ([5]; first compound 2 µM): 0.778
relative viability ([6]; first compound 0.02 µM): 1.34
relative viability ([6]; first compound 0.2 µM): 0.771
relative viability ([6]; first compound 0.6325 µM): 0.861
relative viability ([6]; first compound 2 µM): 0.401
relative viability ([7]; first compound 0.02 µM): 0.963
relative viability ([7]; first compound 0.2 µM): 0.748
relative viability ([7]; first compound 0.6325 µM): 0.969
relative viability ([7]; first compound 2 µM): 0.743
relative viability ([8]; first compound 0.02 µM): 1.05
relative viability ([8]; first compound 0.2 µM): 0.956
relative viability ([8]; first compound 0.6325 µM): 1.18
relative viability ([8]; first compound 2 µM): 0.894
relative viability ([9]; first compound 0.02 µM): 0.911
relative viability ([9]; first compound 0.2 µM): 0.921
relative viability ([9]; first compound 0.6325 µM): 0.953
relative viability ([9]; first compound 2 µM): 0.733
relative viability ([10]; first compound 0.02 µM): 0.992
relative viability ([10]; first compound 0.2 µM): 0.889
relative viability ([10]; first compound 0.6325 µM): 1.06
relative viability ([10]; first compound 2 µM): 0.772
relative viability ([11]; first compound 0.02 µM): 0.802
relative viability ([11]; first compound 0.2 µM): 0.615
relative viability ([11]; first compound 0.6325 µM): 0.811
relative viability ([11]; first compound 2 µM): 0.725
relative viability ([12]; first compound 0.02 µM): 0.813
relative viability ([12]; first compound 0.2 µM): 0.686
relative viability ([12]; first compound 0.6325 µM): 0.732
relative viability ([12]; first compound 2 µM): 0.626
relative viability ([13]; first compound 0.02 µM): 1.35
relative viability ([13]; first compound 0.2 µM): 0.995
relative viability ([13]; first compound 0.6325 µM): 1.07
relative viability ([13]; first compound 2 µM): 0.674
relative viability ([14]; first compound 0.02 µM): 1.13
relative viability ([14]; first compound 0.6325 µM): 1.28
relative viability ([14]; first compound 2 µM): 0.895
relative viability ([15]; first compound 0.02 µM): 1.03
relative viability ([15]; first compound 0.2 µM): 0.966
relative viability ([15]; first compound 0.6325 µM): 0.984
relative viability ([15]; first compound 2 µM): 0.511
relative viability ([16]; first compound 0.02 µM): 0.639
relative viability ([16]; first compound 0.2 µM): 0.607
relative viability ([16]; first compound 0.6325 µM): 0.56
relative viability ([16]; first compound 2 µM): 0.486
relative viability ([17]; first compound 0.02 µM): 0.886
relative viability ([17]; first compound 0.2 µM): 0.682
relative viability ([17]; first compound 0.6325 µM): 0.799
relative viability ([17]; first compound 2 µM): 1.05
relative viability ([18]; first compound 0.02 µM): 0.76
relative viability ([18]; first compound 0.2 µM): 0.803
relative viability ([18]; first compound 0.6325 µM): 0.894
relative viability ([18]; first compound 2 µM): 0.48
relative viability ([19]; first compound 0.02 µM): 1
relative viability ([19]; first compound 0.2 µM): 0.85
relative viability ([19]; first compound 0.6325 µM): 0.928
relative viability ([19]; first compound 2 µM): 1.17
relative viability ([20]; first compound 0.02 µM): 0.456
relative viability ([20]; first compound 0.2 µM): 0.552
relative viability ([20]; first compound 0.6325 µM): 0.633
relative viability ([20]; first compound 2 µM): 0.37
relative viability ([21]; first compound 0.02 µM): 0.979
relative viability ([21]; first compound 0.2 µM): 0.893
relative viability ([21]; first compound 0.6325 µM): 0.842
relative viability ([21]; first compound 2 µM): 0.655
relative viability ([22]; first compound 0.02 µM): 0.334
relative viability ([22]; first compound 0.2 µM): 0.26
relative viability ([22]; first compound 0.6325 µM): 0.305
relative viability ([22]; first compound 2 µM): 0.185
